Series [1] addresses T1, α7-subtype of nicotinic receptors (Rattus norvegicus, UniProt Q05941).
T1 construct: Cerebral cortices from male Wistar rats (150-250 g) are homogenised; from tissue; host or cells: rat cerebral cortex membrane homogenate
Briefly: In vitro inhibition of 3H-α-bungarotoxine binding in rat brain. Conditions: rat cerebral cortex homogenate; 3H-α-bungarotoxine 2 nM; 2 hours at 37° C.

For orientation: melting point means the temperature, or range, at which the solid turns liquid. Usually IC50 stands for the concentration at which inhibition is half-maximal. Lower therefore signals higher potency.

T1 sequence (Q05941 23-502): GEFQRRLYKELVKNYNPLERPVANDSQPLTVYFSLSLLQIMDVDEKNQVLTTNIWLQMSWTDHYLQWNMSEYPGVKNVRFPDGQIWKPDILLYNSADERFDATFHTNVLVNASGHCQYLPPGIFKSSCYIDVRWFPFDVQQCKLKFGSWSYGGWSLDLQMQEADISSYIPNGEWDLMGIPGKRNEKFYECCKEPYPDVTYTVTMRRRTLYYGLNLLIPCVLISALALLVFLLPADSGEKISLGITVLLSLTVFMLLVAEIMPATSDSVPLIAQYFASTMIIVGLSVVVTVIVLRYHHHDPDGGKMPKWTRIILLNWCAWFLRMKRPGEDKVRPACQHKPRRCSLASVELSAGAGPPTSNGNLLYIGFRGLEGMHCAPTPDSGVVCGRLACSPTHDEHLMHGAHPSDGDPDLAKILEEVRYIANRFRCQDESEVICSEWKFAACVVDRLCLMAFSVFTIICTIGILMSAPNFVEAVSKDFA

Compound `O=C(O)/C=C/C(=O)O.c1ccc2c(OC3CN4CCC3CC4)nsc2c1` (racemic) returned a melting point of 172.3 to 173.6 °C.

For the compound `COc1nc2ccccc2nc1OC1CN2CCC1CC2.O=C(O)/C=C/C(=O)O` (racemic), the melting point fell in the range of 168.5 to 170 °C.

In the case of `O=C(O)/C=C/C(=O)O.c1cncc(-c2cnc(OC3CN4CCC3CC4)s2)c1` (racemic) [Compound D6, (±)-3-[5-(3-Pyridyl)-thiazol-2-yloxy]-1-aza-bicyclo[2.2.2]octane fumaric acid salt], the melting point lay in the range of 82.7 to 86 °C. This compound also gave an IC50 in series [1] of 180 nM.

The compound `O=C(O)/C=C/C(=O)O.c1cc(-c2cnc(OC3CN4CCC3CC4)s2)co1` (racemic) [Compound D5, (±)-3-[5-(3-Furanyl)-thiazol-2-yloxy]-1-aza-bicyclo[2.2.2]octane fumaric acid salt] came in with a melting point of 127.6 to 136.2 °C. In addition, the concentration for half-maximal inhibition (IC50) in series [1] was 48 nM.

`O=C(O)/C=C/C(=O)O.c1cnc2ccc(OC3CN4CCC3CC4)cc2c1` (racemic) returned a melting point of 146 to 147 °C.

`Clc1nc2ccccc2nc1OC1CN2CCC1CC2.O=C(O)/C=C/C(=O)O` (racemic) came in with a melting point of 120.8 to 122.1 °C.

In the case of `C.I.c1ccc2c(OC3CN4CCC3CC4)nsc2c1` (racemic), the melting point fell in the range of 180.1 to 186.4 °C.

For the compound `O=C(O)/C=C/C(=O)O.c1cc(-c2nnc(OC3CN4CCC3CC4)s2)cs1` (racemic) [Compound B17, (±)-3-[5-(3-Thienyl)-1,3,4-thiadiazol-2-yloxy]-1-aza-bicyclo[2.2.2]octane fumaric acid salt], the melting point was in the range of 186 to 188 °C. In series [1], this compound displayed an IC50 of 150 nM.

As to `O=C(O)/C=C/C(=O)O.c1cc(-c2cnc(OC3CN4CCC3CC4)s2)cs1` (racemic) [Compound D3, (±)-3-[5-(3-Thienyl)-thiazol-2-yloxy]-1-aza-bicyclo[2.2.2]octane fumaric acid salt], the melting point lay within 68.5 to 74.3 °C. For the same compound, the IC50 in series [1] came to 110 nM.

For `Clc1ccc2nc(OC3CN4CCC3CC4)sc2c1.O=C(O)/C=C/C(=O)O` (racemic) [Compound B2, (±)-3-(6-Chloro-benzothiazol-2-yloxy)-1-aza-bicyclo[2.2.2]octane fumaric acid salt], the melting point is 203 to 205 °C. The compound further displayed an IC50 in series [1] of 180 nM.

In the case of `O=C(O)/C=C/C(=O)O.c1ccc2cc(OC3CN4CCC3CC4)ccc2c1` (racemic), the melting point fell in the range of 140.9 to 141.6 °C.

In turn, `O=C(O)/C=C/C(=O)O.c1cc2c(cc1OC1CN3CCC1CC3)CCCC2` (racemic) showed a melting point of 109.7 to 111.3 °C.

Compound `Brc1cnc(OC2CN3CCC2CC3)s1.O=C(O)/C=C/C(=O)O` (racemic) returned a melting point of 157.8 to 162.1 °C.

Consider `C.I.c1ccc2nc(OC3CN4CCC3CC4)cnc2c1` (racemic), for which the melting point fell in the range of 229 to 230 °C.

Regarding `O=C(O)/C=C/C(=O)O.c1cc(-c2ccc(OC3CN4CCC3CC4)nn2)co1` (racemic), the melting point was in the range of 224.8 to 225.4 °C.

With `Fc1ccc(-c2cnc(OC3CN4CCC3CC4)s2)c(F)c1.O=C(O)/C=C/C(=O)O` (racemic), the melting point lay in the range of 84.3 to 86.3 °C.

Compound `O=C(O)/C=C/C(=O)O.c1ccc2nc(OC3CN4CCC3CC4)cnc2c1` (racemic) showed a melting point of 127.7 to 128.5 °C.

Regarding `O=C(O)/C=C/C(=O)O.c1cc(-c2ccc(OC3CN4CCC3CC4)nn2)cs1` (racemic) [Compound D7, (±)-3-[6-(3-Thienyl)-pyridazin-3-yloxy]-1-aza-bicyclo[2.2.2]octane fumaric acid salt], the melting point was determined as 197.9 °C. The IC50 in series [1] stood at 130 nM.

With `O=C(O)/C=C/C(=O)O.c1ccc2nc(OC3CN4CCC3CC4)ccc2c1` (racemic), the melting point is 160 to 160.5 °C.

`Brc1ccc(OC2CN3CCC2CC3)nn1.O=C(O)/C=C/C(=O)O` (racemic): the melting point was determined as 152.8 °C.

Take `O=C(O)/C=C/C(=O)O.c1ccc(-c2ccccc2OC2CN3CCC2CC3)cc1` (racemic): the melting point came out at 125.4 °C.

Compound `Clc1ccc(OC2CN3CCC2CC3)nn1.O=C(O)/C=C/C(=O)O` (racemic) gave a melting point of 164 to 164.5 °C.

`C.I.c1ccc2nc(OC3CN4CCC3CC4)ccc2c1` (racemic) came in with a melting point of 156.6 to 175.2 °C.

Turning to `O=C(O)/C=C/C(=O)O.c1ccc(-c2nnc(OC3CN4CCC3CC4)s2)cc1` (racemic), the melting point lay in the range of 168.5 to 172 °C.

For `O=C(O)/C=C/C(=O)O.c1cncc(-c2ccc(OC3CN4CCC3CC4)nn2)c1` (racemic), the melting point lay within 137.2 to 143.2 °C.

The compound `O=C(O)/C=C/C(=O)O.c1ccc(-c2cnc(OC3CN4CCC3CC4)s2)cc1` (racemic) [Compound D1, (±)-3-(5-Phenyl-thiazol-2-yloxy)-1-aza-bicyclo[2.2.2]octane fumaric acid salt] returned a melting point of 170.9 to 172.2 °C. The compound also gave an IC50 in series [1] of 52 nM.

Turning to `Cn1c(OC2CN3CCC2CC3)nc2ccccc21.O=C(O)/C=C/C(=O)O` (racemic), the melting point was 184.9 to 185.9 °C.

`O=C(O)/C=C/C(=O)O.c1csc(-c2cnc(OC3CN4CCC3CC4)s2)c1` (racemic) [Compound D4, (±)-3-[5-(2-Thienyl)-thiazol-2-yloxy]-1-aza-bicyclo[2.2.2]octane fumaric acid salt] displayed a melting point of 152.6 to 154.9 °C. The same compound showed an IC50 in series [1] of 20 nM.

For the compound `O=C(O)/C=C/C(=O)O.c1coc(-c2ccc(OC3CN4CCC3CC4)nn2)c1` (racemic), the melting point fell in the range of 175.8 to 178.2 °C.

`O=C(O)/C=C/C(=O)O.c1ccc(-c2ccc(OC3CN4CCC3CC4)nn2)cc1` (racemic) showed a melting point of 168.5 to 172 °C.

`O=C(O)/C=C/C(=O)O.c1ccc2sc(OC3CN4CCC3CC4)nc2c1` (racemic) [Compound B3, (±)-3-(Benzothiazol-2-yloxy)-1-aza-bicyclo[2.2.2]octane fumaric acid salt] registered a melting point of 173.7 to 174.2 °C. For the same compound, the IC50 in series [1] came out at 170 nM.

Consider `O=C(O)/C=C/C(=O)O.c1csc(-c2ccc(OC3CN4CCC3CC4)nn2)c1` (racemic) [Compound D8, (±)-3-[6-(2-Thienyl)-pyridazin-3-yloxy]-1-aza-bicyclo[2.2.2]octane fumaric acid salt], for which the melting point lay within 180.3 to 191.1 °C. In series [1], this compound gave an IC50 of 53 nM.

`O=C(O)/C=C/C(=O)O.c1ccc2oc(OC3CN4CCC3CC4)nc2c1` (racemic) showed a melting point of 187.2 to 188.8 °C.

Take `O=C(O)/C=C/C(=O)O.c1cc2c(cc1OC1CN3CCC1CC3)CCC2` (racemic): the melting point was in the range of 149.3 to 150.5 °C.

`O=C(O)/C=C/C(=O)O.c1ccc(-c2ccc(OC3CN4CCC3CC4)cc2)cc1` (racemic) [Compound A2, (±)-3-(4-Phenylphenyloxy)-1-aza-bicyclo[2.2.2]octane fumaric acid salt] showed a melting point of 173.5 to 185.1 °C. Besides, the IC50 in series [1] turned out to be 160 nM.

(Values after US20090005390A1, “NOVEL QUINUCLIDINE DERIVATIVES AND THEIR USE” (N[…]/S, priority 2002, published 2009).)
